According to ChEMBL document CHEMBL4673317, “Linearolactone and Kaempferol Disrupt the Actin Cytoskeleton in Entamoeba histolytica: Inhibition of Amoebic Liver Abscess Development” (J Nat Prod, 2020):
One block for each compound: values may come before it. Calls of active or inactive are those of the source. The rule behind the calls is not given here.

Legend:
Entamoeba histolytica [1] = assay: Antimicrobial activity against Entamoeba histolytica […] trophozoites infected in Syrian hamster assessed as ALT level at 0.05 mg/kg, ip at 4 days post infection and measured on day 8 (reference value: 276 +/- 24 U/L); assay type: functional, HM-1:IMSS; settings: time 4 day
Entamoeba histolytica [2] = assay: Antimicrobial activity against Entamoeba histolytica […] trophozoites infected in Syrian hamster assessed as ALP level at 0.05 mg/kg, ip at 4 days post infection and measured on day 8 (reference value: 638 +/- 50 U/L); assay type: functional, HM-1:IMSS; settings: time 4 day
Entamoeba histolytica [3] = assay: Induction of apoptosis in Entamoeba histolytica […] trophozoites assessed as viable cells at IC50 concentration after 48 hrs by annexin-V-FITC/propidium iodide staining based flow cytometric analysis (reference value: 98%); assay type: functional, HM-1:IMSS
Entamoeba histolytica [4] = assay: Antimicrobial activity against Entamoeba histolytica […] trophozoites infected in Syrian hamster assessed as glucose level at 0.05 mg/kg, ip at 4 days post infection and measured on day 8 (reference value: 126 +/- 18 mg/dl); assay type: functional, HM-1:IMSS; settings: time 4 day
Giardia intestinalis = assay: Antigiardial activity against Giardia lamblia WB infected in ig dosed CD-1 mouse assessed as reduction in parasite growth after 8 days; assay type: functional; settings: Giardia duodenalis, po, 192 h, time 8 day
Entamoeba histolytica [5] = assay: Induction of ROS generation in Entamoeba histolytica […] trophozoites at IC50 concentration incubated for 1 hr in presence of trolox by DCFDA staining based assay relative to control; assay type: functional, HM-1:IMSS
Entamoeba histolytica [6] = assay: Induction of apoptosis in Entamoeba histolytica […] trophozoites assessed as early apoptotic cells at IC50 concentration after 48 hrs by annexin-V-FITC/propidium iodide staining based flow cytometric analysis (reference value: 0.9%); assay type: functional, HM-1:IMSS
Entamoeba histolytica [7] = assay: Antimicrobial activity against Entamoeba histolytica […] trophozoites assessed as decrease in size of cells at IC50 concentration after 48 hrs by uranyl acetate staining based TEM analysis; assay type: functional, organism-based; settings: HM-1:IMSS
CHO-K1 = assay: Cytotoxicity against CHO-K1 cells assessed as reduction in cell viability after 24 hrs by MTT assay; assay type: cell-based; settings: Cricetulus griseus, CHO-K1, 24 h
BEAS-2B = assay: Cytotoxicity against human BEAS-2B cells assessed as reduction in cell viability after 24 hrs by MTT assay; assay type: cell-based
Entamoeba histolytica [8] = assay: Induction of apoptosis in Entamoeba histolytica […] trophozoites assessed as necrotic cells at IC50 concentration after 48 hrs by annexin-V-FITC/propidium iodide staining based flow cytometric analysis (reference value: 0.4%); assay type: functional, HM-1:IMSS
Entamoeba histolytica [9] = assay: Antimicrobial activity against Entamoeba histolytica […] trophozoites assessed as abnormal condensation of chromatin at IC50 concentration after 48 hrs by uranyl acetate staining based TEM analysis; assay type: functional, organism-based; settings: HM-1:IMSS
Entamoeba histolytica [10] = assay: Antimicrobial activity against Entamoeba histolytica HM1:MMS assessed as reduction in amoeba growth; assay type: functional, organism-based; settings: HM-1:IMSS
Entamoeba histolytica [11] = assay: Antimicrobial activity against Entamoeba histolytica […] trophozoites infected in Syrian hamster assessed as total bilirubin level at 0.05 mg/kg, ip at 4 days post infection and measured on day 8 (reference value: 0.8 +/- 0.2 mg/dl); assay type: functional, HM-1:IMSS; settings: time 4 day
Entamoeba histolytica [12] = assay: Antimicrobial activity against Entamoeba histolytica […] trophozoites infected in Syrian hamster assessed as inhibition of amoebic liver abscess by abundant monocytes at 0.5 mg/kg, ip at 4 days post infection and measured on day 8 by H and E staining based microscopic method; assay type: functional, organism-based; settings: HM-1:IMSS, time 4.0 day
Entamoeba histolytica [13] = assay: Induction of apoptosis in Entamoeba histolytica […] trophozoites assessed as late apoptotic cells at IC50 concentration after 48 hrs by annexin-V-FITC/propidium iodide staining based flow cytometric analysis (reference value: 0.7%); assay type: functional, HM-1:IMSS
Entamoeba histolytica [14] = assay: Antimicrobial activity against Entamoeba histolytica […] trophozoites infected in Syrian hamster assessed as platelets at 0.05 mg/kg, ip at 4 days post infection and measured on day 8 (reference value: 439 +/- 108 […]); assay type: functional, HM-1:IMSS; settings: time 4 day
Entamoeba histolytica [15] = assay: Antimicrobial activity against Entamoeba histolytica […] trophozoites infected in Syrian hamster assessed as inhibition of amoebic liver abscess by measuring vascular congestion at 0.5 mg/kg, ip at 4 days post infection and measured on day 8 by H and E staining based microscopic method; assay type: functional, organism-based; settings: HM-1:IMSS, time 4.0 day
Entamoeba histolytica [16] = assay: Antimicrobial activity against Entamoeba histolytica […] trophozoites infected in Syrian hamster assessed as inhibition of amoebic liver abscess by measuring edema at 0.5 mg/kg, ip at 4 days post infection and measured on day 8 by H and E staining based microscopic method; assay type: functional, organism-based; settings: HM-1:IMSS, time 4.0 day
Entamoeba histolytica [17] = assay: Antimicrobial activity against Entamoeba histolytica […] trophozoites infected in Syrian hamster assessed as inhibition of amoebic liver abscess at 0.5 mg/kg, ip at 4 days post infection and measured on day 8 by NMR analysis; assay type: functional, organism-based; settings: HM-1:IMSS, time 4.0 day
Entamoeba histolytica [18] = assay: Antimicrobial activity against Entamoeba histolytica […] trophozoites infected in Syrian hamster assessed as blood ureic nitrogen level at 0.05 mg/kg, ip at 4 days post infection and measured on day 8 (reference value: […]); assay type: functional, HM-1:IMSS; settings: time 4 day
Entamoeba histolytica [19] = assay: Antimicrobial activity against Entamoeba histolytica […] trophozoites infected in Syrian hamster assessed as creatinine level at 0.05 mg/kg, ip at 4 days post infection and measured on day 8 (reference value: 0.9 +/- 0.06 mg/dl); assay type: functional, HM-1:IMSS; settings: time 4 day
Entamoeba histolytica [20] = assay: Antimicrobial activity against Entamoeba histolytica […] trophozoites assessed as decrease in number of vacuoles at IC50 concentration after 48 hrs by uranyl acetate staining based TEM analysis; assay type: functional, organism-based; settings: HM-1:IMSS
Entamoeba histolytica [21] = assay: Antimicrobial activity against Entamoeba histolytica […] trophozoites infected in Syrian hamster assessed as urea level at 0.05 mg/kg, ip at 4 days post infection and measured on day 8 (reference value: 14 +/- 1 mg/dl); assay type: functional, HM-1:IMSS; settings: time 4 day
Entamoeba histolytica [22] = assay: Antimicrobial activity against Entamoeba histolytica […] trophozoites infected in Syrian hamster assessed as triglycerides level at 0.05 mg/kg, ip at 4 days post infection and measured on day 8 (reference value: 395 +/- 41 mg/dl); assay type: functional, HM-1:IMSS; settings: time 4 day
Entamoeba histolytica [23] = assay: Antimicrobial activity against Entamoeba histolytica […] trophozoites assessed as decrease in granularity at IC50 concentration after 48 hrs by uranyl acetate staining based TEM analysis; assay type: functional, organism-based; settings: HM-1:IMSS
Entamoeba histolytica [24] = assay: Antimicrobial activity against Entamoeba histolytica […] trophozoites infected in Syrian hamster assessed as total leukocytes at 0.05 mg/kg, ip at 4 days post infection and measured on day 8 (reference value: 18 +/- 16 […]/mm3); assay type: functional, HM-1:IMSS; settings: time 4 day
Entamoeba histolytica [25] = assay: Binding affinity to Entamoeba histolytica […] trophozoites actin assessed as induction of polarization of polymerized actin at IC50 concentration incubated for 1 hrs by […] staining based confocal microscopic analysis
Entamoeba histolytica [26] = assay: Induction of ROS generation in Entamoeba histolytica […] trophozoites at IC50 concentration incubated for 1 hr by DCFDA staining based assay; assay type: functional, organism-based; settings: HM-1:IMSS
Entamoeba histolytica [27] = assay: Antimicrobial activity against Entamoeba histolytica […] trophozoites infected in Syrian hamster assessed as ALT level at 0.1 mg/kg, ip at 4 days post infection and measured on day 8 (reference value: 276 +/- 24 U/L); assay type: functional, HM-1:IMSS; settings: time 4 day
Entamoeba histolytica [28] = assay: Antimicrobial activity against Entamoeba histolytica […] trophozoites infected in Syrian hamster assessed as triglycerides level at 0.1 mg/kg, ip at 4 days post infection and measured on day 8 (reference value: 395 +/- 41 mg/dl); assay type: functional, HM-1:IMSS; settings: time 4 day
Entamoeba histolytica [29] = assay: Antimicrobial activity against Entamoeba histolytica […] trophozoites infected in Syrian hamster assessed as total bilirubin level at 0.1 mg/kg, ip at 4 days post infection and measured on day 8 (reference value: 0.8 +/- 0.2 mg/dl); assay type: functional, HM-1:IMSS; settings: time 4 day
Entamoeba histolytica [30] = assay: Antimicrobial activity against Entamoeba histolytica […] trophozoites infected in Syrian hamster assessed as glucose level at 0.1 mg/kg, ip at 4 days post infection and measured on day 8 (reference value: 126 +/- 18 mg/dl); assay type: functional, HM-1:IMSS; settings: time 4 day
Entamoeba histolytica [31] = assay: Antimicrobial activity against Entamoeba histolytica […] trophozoites infected in Syrian hamster assessed as ALP level at 0.1 mg/kg, ip at 4 days post infection and measured on day 8 (reference value: 638 +/- 50 U/L); assay type: functional, HM-1:IMSS; settings: time 4 day
Entamoeba histolytica [32] = assay: Antimicrobial activity against Entamoeba histolytica […] trophozoites infected in Syrian hamster assessed as platelets at 0.1 mg/kg, ip at 4 days post infection and measured on day 8 (reference value: 439 +/- 108 […]); assay type: functional, HM-1:IMSS; settings: time 4 day
Entamoeba histolytica [33] = assay: Antimicrobial activity against Entamoeba histolytica […] trophozoites infected in Syrian hamster assessed as blood ureic nitrogen level at 0.1 mg/kg, ip at 4 days post infection and measured on day 8 (reference value: […]); assay type: functional, HM-1:IMSS; settings: time 4 day
Entamoeba histolytica [34] = assay: Antimicrobial activity against Entamoeba histolytica […] trophozoites infected in Syrian hamster assessed as urea level at 0.1 mg/kg, ip at 4 days post infection and measured on day 8 (reference value: 14 +/- 1 mg/dl); assay type: functional, HM-1:IMSS; settings: time 4 day
Entamoeba histolytica [35] = assay: Antimicrobial activity against Entamoeba histolytica […] trophozoites infected in Syrian hamster assessed as creatinine level at 0.1 mg/kg, ip at 4 days post infection and measured on day 8 (reference value: 0.9 +/- 0.06 mg/dl); assay type: functional, HM-1:IMSS; settings: time 4 day
Entamoeba histolytica [36] = assay: Binding affinity to Entamoeba histolytica […] trophozoites actin assessed as formation of pseudo-plates at IC50 concentration incubated for 1 hrs by […] staining based confocal microscopic analysis

Activity (Entamoeba histolytica [25]): Active
SMILES: O=c1c(O)c(-c2ccc(O)cc2)oc2cc(O)cc(O)c12 [KAEMPFEROL]
Activity (Entamoeba histolytica [1]): 55 U/L
Activity (Entamoeba histolytica [2]): 348 U/L
Activity (Entamoeba histolytica [3]): 87.3%
Activity (Entamoeba histolytica [4]): 58 mg/dL
ED50 (Giardia intestinalis): 2.06 µmol/kg
Activity (Entamoeba histolytica [5]): 33.36%
Activity (Entamoeba histolytica [6]): 4.2%
Activity (Entamoeba histolytica [7]): Active
IC50 (CHO-K1): 240 µM
IC50 (BEAS-2B): 350 µM
Activity (Entamoeba histolytica [8]): 2.4%
Activity (Entamoeba histolytica [9]): Active
IC50 (Entamoeba histolytica [10]): 0.23 µM
Activity (Entamoeba histolytica [11]): 0.4 mg/dL
inhibition (Entamoeba histolytica [12]): Active
Activity (Entamoeba histolytica [13]): 6.1%
Activity (Entamoeba histolytica [14]): 679 thousand/mm3
inhibition (Entamoeba histolytica [15]): Active
inhibition (Entamoeba histolytica [16]): Active
inhibition (Entamoeba histolytica [17]): Active
Activity (Entamoeba histolytica [18]): 19 mg/dL
Activity (Entamoeba histolytica [19]): 0.5 mg/dL
Activity (Entamoeba histolytica [20]): Active
Activity (Entamoeba histolytica [21]): 42 mg/dL
Activity (Entamoeba histolytica [22]): 442 mg/dL
Activity (Entamoeba histolytica [23]): Active
Activity (Entamoeba histolytica [24]): 19 thousand/mm3
Activity (Entamoeba histolytica [26]): Active

Activity (Entamoeba histolytica [36]): Active
SMILES: Cc1ncc([N+](=O)[O-])n1CCO [METRONIDAZOLE]
Activity (Entamoeba histolytica [3]): 91.3%
Activity (Entamoeba histolytica [27]): 159 U/L
Activity (Entamoeba histolytica [5]): 49.11%
Activity (Entamoeba histolytica [6]): 5.5%
Activity (Entamoeba histolytica [7]): Active
IC50 (CHO-K1): 2920 µM
IC50 (BEAS-2B): 2240 µM
Activity (Entamoeba histolytica [8]): 0.3%
Activity (Entamoeba histolytica [9]): Active
IC50 (Entamoeba histolytica [10]): 22.9 µM
Activity (Entamoeba histolytica [28]): 335 mg/dL
Activity (Entamoeba histolytica [29]): 0.8 mg/dL
Activity (Entamoeba histolytica [30]): 148 mg/dL
Activity (Entamoeba histolytica [31]): 185 U/L
Activity (Entamoeba histolytica [32]): 616 thousand/mm3
Activity (Entamoeba histolytica [13]): 2.9%
Activity (Entamoeba histolytica [33]): 19 mg/dL
Activity (Entamoeba histolytica [34]): 41 mg/dL
Activity (Entamoeba histolytica [35]): 1 mg/dL
Activity (Entamoeba histolytica [23]): Active
Activity (Entamoeba histolytica [26]): Active
